The test deals with P. falciparum K1. Nature of the test: Plasmodium falciparum in vitro assay ([3H] hypoxanthine incorporation). The format is cell-based. The following applies: Plasmodium falciparum; erythrocytic stages, strain K1 resistant to chloroquine and pyrimethamine, human red cells; read-out: IC50 (nM) on K1. On the procedure: In vitro antimalarial activity: Plasmodium falciparum in vitro assay In vitro activity against erythrocytic stages of P. falciparum is determined using a [^3H] hypoxanthine incorporation assay. One strain resistant to chloroquine and pyrimethamine (P. falciparum K1) is used in the assays, and all test compounds are compared for activity with the standard drugs chloroquine (sigma C6628) and artemisinin (sigma-36, 159-3). Compounds are diluted in DMSO to 1 mM and added to parasite cultures incubated in RPMI 1640 medium without hypoxanthine, supplemented with HEPES (5.94 g/L), NaHCO3 (2.1 g/L), neomycin (100 U/mL), Albumax (5 g/L) and washed human red cells at 2.5% hematocrit (0.3% parasitaemia). Seven serial doubling dilutions of each drug are prepared in 96-well microtitre plates and incubated in a humidifying atmosphere at 37° C.; 4% CO2, 3% O2, 93% N2.
After 48 h, 50 μl of [^3H] hypoxanthine (0.5 μCi) is added to each well of a plate. The plates are incubated for a further 24 h under the same conditions. The plates are then harvested with a Betaplate cell harvester (Wallac) and washed with distilled water. The dried filters are inserted into a plastic foil with 10 mL of scintillation fluid, and counted in a Betaplate liquid scintillation counter. IC50 values are calculated from sigmoidal inhibition curves using Microsoft Excel.

In the case of `Cc1noc(C)c1C=CC(=O)N(Cc1ccc(-c2cncnc2)cc1)[C@@H](Cc1ccccc1)C(=O)N1CCc2ccccc2C1` [Example 235, (S)—N-[1-Benzyl-2-(3,4-dihydro-1H-isoquinolin-2-yl)-2-oxo-ethyl]-3-(3,5-dimethyl-isoxazol-4-yl)-N-(4-pyrimidin-5-yl-benzyl)-acrylamide], the IC50 was 26 nM.
Regarding `C[C@@H]1CC[C@H]2[C@@H](C)C(=O)O[C@@H]3O[C@@]4(C)CC[C@@H]1[C@]32OO4` [Artemisinin, artemisinin, reference compound], the half-inhibitory concentration (IC50) was 2 nM.

A word on the IC50: it is the concentration at which inhibition is half-maximal.

Source of the values: patent US20110281869A1, “TETRAHYDROISOQUINOLINES AS ANTIMALARIAL AGENTS” (priority 2008, published 2011).
